From ChEMBL document CHEMBL1201862, “PubChem BioAssay data set” (2004)
Calls of active or inactive are those of the source.

Tests used:
[1] = blockers of CRF-binding protein–CRF-R2 complex – cell-based, uHTS hits, 384-well, dose response (AID 651639); format: functional, Homo sapiens; conditions: read-out: IC50_Mean
[2] = target: T1, Corticotropin-releasing factor receptor 2/Corticotropin-releasing factor-binding protein (Homo sapiens, UniProt P24387+Q13324); test: Dose Response confirmation of uHTS hits for small molecule antagonists of the CRF-binding protein and CRF-R2 receptor complex.; format: functional; conditions: read-out: IC50_Mean
T1 sequence (Q13324 whole entry): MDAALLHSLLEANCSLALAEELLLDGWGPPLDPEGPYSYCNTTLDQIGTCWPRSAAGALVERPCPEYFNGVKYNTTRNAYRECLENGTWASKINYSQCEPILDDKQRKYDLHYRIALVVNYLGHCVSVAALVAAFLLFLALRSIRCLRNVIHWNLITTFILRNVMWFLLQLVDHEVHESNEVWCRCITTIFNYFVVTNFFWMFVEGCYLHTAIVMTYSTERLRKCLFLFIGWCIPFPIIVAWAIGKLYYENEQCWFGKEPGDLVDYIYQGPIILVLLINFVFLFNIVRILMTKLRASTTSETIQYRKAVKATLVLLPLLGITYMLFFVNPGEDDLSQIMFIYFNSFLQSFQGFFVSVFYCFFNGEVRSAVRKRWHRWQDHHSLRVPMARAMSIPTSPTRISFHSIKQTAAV
T1 sequence (P24387 whole entry): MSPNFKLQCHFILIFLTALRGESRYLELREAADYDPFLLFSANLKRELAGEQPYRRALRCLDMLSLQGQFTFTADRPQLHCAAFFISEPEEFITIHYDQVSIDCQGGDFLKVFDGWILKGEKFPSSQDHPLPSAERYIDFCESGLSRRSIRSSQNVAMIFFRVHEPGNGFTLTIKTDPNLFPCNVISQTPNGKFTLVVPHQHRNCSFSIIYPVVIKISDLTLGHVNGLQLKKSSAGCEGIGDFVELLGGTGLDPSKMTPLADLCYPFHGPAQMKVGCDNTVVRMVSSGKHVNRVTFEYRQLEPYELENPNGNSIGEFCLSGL

[3] = target: T1, Corticotropin-releasing factor receptor 2/Corticotropin-releasing factor-binding protein; test: activators of CRF receptor 2 with binding protein – uHTS hits, confirmation (AID 602473); format: functional; conditions: read-out: EC50_Mean
[4] = nonselective StAR promoter luciferase inhibitors – cell-based, luminescence, luciferase reporter, counter-screen for LRH-1 inverse agonist project, dose response (AID 651969); format: functional
Steroidogenic factor 1 = Steroidogenic factor 1 (Homo sapiens, UniProt Q13285); test: Counterscreen for inverse agonists of the liver receptor homolog-1 (LRH-1; NR5A2): Luminescence-based cell-based high throughput dose response assay to identify inverse agonists of the Steroidogenic Factor 1 Nuclear Receptor (SF1; NR5A1).; format: functional
Chain of Steroidogenic factor 1 (Q13285 whole entry): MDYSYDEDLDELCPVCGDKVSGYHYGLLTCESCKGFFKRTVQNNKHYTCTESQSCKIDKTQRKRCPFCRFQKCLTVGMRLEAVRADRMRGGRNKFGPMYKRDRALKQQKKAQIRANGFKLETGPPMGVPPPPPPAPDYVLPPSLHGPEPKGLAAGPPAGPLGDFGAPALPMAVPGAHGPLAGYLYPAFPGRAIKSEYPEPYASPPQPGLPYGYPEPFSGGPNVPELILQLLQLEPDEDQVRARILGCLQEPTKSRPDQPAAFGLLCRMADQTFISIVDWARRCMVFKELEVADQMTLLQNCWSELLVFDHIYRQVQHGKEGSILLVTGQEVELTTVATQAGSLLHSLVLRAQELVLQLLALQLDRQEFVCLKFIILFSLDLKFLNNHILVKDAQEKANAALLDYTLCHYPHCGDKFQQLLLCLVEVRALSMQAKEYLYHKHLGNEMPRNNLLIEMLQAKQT

[5] = target: Nuclear receptor subfamily 5 group A member 2 (Homo sapiens, UniProt O00482); format: functional, cell-based;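 note: HEK293T cells transfected with LRH-1 and a StAR promoter luciferase reporter; potency for inhibitors that lower LRH-1 driven reporter light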
Chain of Nuclear receptor subfamily 5 group A member 2 (O00482 whole entry): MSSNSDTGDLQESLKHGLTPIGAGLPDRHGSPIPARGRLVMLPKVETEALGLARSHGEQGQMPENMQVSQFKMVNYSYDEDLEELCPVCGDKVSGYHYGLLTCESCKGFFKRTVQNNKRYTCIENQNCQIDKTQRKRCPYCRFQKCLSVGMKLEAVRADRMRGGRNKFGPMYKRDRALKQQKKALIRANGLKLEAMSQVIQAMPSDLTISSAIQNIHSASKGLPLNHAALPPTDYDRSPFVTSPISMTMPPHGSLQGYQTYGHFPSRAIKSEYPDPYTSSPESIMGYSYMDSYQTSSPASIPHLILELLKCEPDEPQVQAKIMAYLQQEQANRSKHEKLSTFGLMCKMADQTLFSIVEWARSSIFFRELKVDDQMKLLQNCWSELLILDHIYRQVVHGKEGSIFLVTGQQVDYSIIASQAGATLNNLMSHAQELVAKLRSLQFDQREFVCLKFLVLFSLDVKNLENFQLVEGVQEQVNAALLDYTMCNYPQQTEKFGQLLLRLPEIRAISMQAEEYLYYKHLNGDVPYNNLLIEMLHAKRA

[6] = bead-based luminescence quenchers, dual-tagged ARNT – biochemical, AlphaScreen, cherry-pick, artefact control for ARNT-TACC3 interaction inhibitor project, dose response (AID 651705); format: functional;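 note: AlphaScreen bead proximity signal that flags compounds interfering with the detection technology; potency reflects signal decrease which marks the compound as an assay artifact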
[7] = A Cell Based Secondary Assay To Explore Cytotoxicity of Compounds that Sensitize Mycobacterium Tuberculosis to Beta-Lactam Antibiotics.; format: functional
[8] = target: T2, Microphthalmia-associated transcription factor (Homo sapiens, UniProt O75030); test: reducers of TRPM1 reporter luminescence, concentration series – cell-based, SK-MEL-5, cherry-picked, set 3, MITF inhibitor project, dose response (AID 493073); format: functional;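 note: SK-MEL-5 melanoma cells with luciferase driven by the MITF target TRPM1 promoter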
T2 sequence (O75030 whole entry): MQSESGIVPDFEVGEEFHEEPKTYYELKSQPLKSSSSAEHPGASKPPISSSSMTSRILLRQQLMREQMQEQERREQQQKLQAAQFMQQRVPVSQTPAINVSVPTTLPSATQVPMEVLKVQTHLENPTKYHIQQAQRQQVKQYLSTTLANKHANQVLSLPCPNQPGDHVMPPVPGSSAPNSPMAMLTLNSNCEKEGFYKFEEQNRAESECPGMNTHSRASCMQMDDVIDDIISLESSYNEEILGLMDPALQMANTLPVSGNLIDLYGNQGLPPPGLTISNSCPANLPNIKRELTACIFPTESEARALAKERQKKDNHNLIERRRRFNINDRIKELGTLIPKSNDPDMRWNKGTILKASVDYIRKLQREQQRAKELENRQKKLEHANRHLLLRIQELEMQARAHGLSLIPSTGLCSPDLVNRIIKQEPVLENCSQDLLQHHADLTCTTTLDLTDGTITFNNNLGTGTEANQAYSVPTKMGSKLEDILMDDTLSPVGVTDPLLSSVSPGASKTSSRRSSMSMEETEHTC

[9] = microbe, parasite or virus in culture; format: functional; conditions: Mycobacterium tuberculosis
Interleukin-8 [10] = target: T3, Interleukin-8 (Homo sapiens, UniProt P10145); test: Dose Response confirmation of uHTS small molecule hits for cystic fibrosis induced NFkb Inhibitors in a PAF-induced IL8 counterscreen.; format: functional; conditions: read-out: IC50_Mean
T3 sequence (P10145 whole entry): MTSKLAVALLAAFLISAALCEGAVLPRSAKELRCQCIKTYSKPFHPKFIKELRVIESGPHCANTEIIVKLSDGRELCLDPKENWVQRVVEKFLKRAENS

Interleukin-8 [11] = target: T3, Interleukin-8; test: Dose Response confirmation of uHTS small molecule hits for cystic fibrosis induced NFkb Inhibitors in a TNFa-induced IL8 counterscreen.; format: functional; conditions: read-out: IC50_Mean
HEK293 = test: EBV LMP1 TES2 canonical NF-kB signalling blockers – cell-based, HEK293, luciferase, cherry-pick, dose response (AID 588343); format: functional; conditions: Homo sapiens
[12] = target: Adenosylmethionine-8-amino-7-oxononanoate aminotransferase (Mycobacterium tuberculosis, UniProt P9WQ81); test: Mycobacterium tuberculosis BioA enzyme inhibitor Measured in Biochemical System Using Plate Reader - 2163-02_Inhibitor_Dose_CherryPick_Activity.; format: functional, Mycobacterium tuberculosis UT205
Chain of Adenosylmethionine-8-amino-7-oxononanoate aminotransferase (P9WQ81 whole entry): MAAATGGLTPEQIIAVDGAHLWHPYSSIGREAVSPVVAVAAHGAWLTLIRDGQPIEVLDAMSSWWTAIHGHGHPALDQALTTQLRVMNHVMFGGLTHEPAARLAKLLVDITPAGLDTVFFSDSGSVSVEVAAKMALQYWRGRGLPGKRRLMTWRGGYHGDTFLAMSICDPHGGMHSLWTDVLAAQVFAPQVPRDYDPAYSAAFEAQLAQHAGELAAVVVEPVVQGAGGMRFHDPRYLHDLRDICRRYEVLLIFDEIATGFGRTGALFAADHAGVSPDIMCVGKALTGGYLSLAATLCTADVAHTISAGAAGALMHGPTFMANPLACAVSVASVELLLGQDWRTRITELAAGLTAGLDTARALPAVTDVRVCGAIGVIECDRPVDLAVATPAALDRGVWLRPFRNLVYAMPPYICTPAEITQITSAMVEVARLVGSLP

Nonstructural protein 1 = Nonstructural protein 1 (Influenza A virus, UniProt Q194T2); format: functional, Influenza A virus (A/California/07/2009(H1N1))
Chain of Nonstructural protein 1 (Q194T2 whole entry): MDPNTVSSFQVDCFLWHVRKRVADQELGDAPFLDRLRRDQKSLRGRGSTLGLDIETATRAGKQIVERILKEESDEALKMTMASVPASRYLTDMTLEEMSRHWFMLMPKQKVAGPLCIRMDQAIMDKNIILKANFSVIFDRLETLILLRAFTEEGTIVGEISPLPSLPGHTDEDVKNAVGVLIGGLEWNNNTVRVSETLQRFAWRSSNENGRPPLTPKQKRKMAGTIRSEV

[13] = target: T4, Sentrin-specific protease 6 (Homo sapiens, UniProt Q9GZR1); test: SAR Analysis of small molecule inhibitors of Sentrin-specific protease 6 (SENP6) using a Luminescent assay. [Related pubchem assays (depositor defined):AID2582, AID2599]; format: functional
T4 sequence (Q9GZR1 whole entry): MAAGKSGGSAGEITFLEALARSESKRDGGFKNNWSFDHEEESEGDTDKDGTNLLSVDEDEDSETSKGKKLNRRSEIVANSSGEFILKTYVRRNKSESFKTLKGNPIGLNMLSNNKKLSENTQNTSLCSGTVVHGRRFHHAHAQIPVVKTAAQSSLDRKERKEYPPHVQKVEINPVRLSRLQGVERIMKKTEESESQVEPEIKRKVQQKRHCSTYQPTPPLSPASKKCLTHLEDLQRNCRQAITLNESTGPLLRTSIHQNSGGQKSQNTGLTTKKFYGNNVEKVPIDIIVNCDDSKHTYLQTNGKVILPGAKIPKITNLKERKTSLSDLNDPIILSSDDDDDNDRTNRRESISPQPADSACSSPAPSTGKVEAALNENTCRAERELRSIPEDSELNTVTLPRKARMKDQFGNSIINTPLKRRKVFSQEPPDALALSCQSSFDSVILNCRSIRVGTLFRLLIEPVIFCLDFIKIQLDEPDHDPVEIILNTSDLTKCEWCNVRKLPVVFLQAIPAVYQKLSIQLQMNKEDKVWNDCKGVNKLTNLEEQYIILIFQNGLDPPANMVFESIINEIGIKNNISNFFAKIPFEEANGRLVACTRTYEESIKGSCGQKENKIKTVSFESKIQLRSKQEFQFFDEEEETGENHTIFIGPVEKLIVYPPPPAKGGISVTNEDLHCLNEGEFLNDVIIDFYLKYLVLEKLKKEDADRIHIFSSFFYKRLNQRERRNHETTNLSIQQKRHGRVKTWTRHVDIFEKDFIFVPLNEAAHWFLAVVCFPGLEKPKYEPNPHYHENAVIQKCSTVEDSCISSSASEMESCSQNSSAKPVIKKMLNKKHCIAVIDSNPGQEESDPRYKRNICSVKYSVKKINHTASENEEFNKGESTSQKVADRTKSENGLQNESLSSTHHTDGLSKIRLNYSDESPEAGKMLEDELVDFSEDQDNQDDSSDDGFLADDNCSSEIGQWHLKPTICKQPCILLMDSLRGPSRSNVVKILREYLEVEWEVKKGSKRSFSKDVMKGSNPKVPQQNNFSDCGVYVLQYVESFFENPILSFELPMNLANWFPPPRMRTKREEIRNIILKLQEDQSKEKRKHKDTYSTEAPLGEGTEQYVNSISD

Caspase-3 = target: T5, Caspase-3 (Homo sapiens, UniProt P42574); test: SAR Analysis of small molecule inhibitors of Sentrin-specific proteases (SENPs) using a Caspase-3 Selectivity assay. [Related pubchem assays (depositor defined):AID2540, AID2599, AID434973, AID489001]; format: functional
T5 sequence (P42574 whole entry): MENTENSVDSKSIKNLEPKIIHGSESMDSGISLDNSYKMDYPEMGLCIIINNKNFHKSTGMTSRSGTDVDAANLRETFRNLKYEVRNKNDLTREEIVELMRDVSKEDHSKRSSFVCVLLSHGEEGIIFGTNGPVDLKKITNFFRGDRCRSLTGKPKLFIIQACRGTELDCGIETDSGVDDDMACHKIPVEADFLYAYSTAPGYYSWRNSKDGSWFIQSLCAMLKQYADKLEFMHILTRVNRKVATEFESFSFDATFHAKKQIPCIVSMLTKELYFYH

[14] = target: T6, Sentrin-specific protease 8 (Homo sapiens, UniProt Q96LD8); test: inhibition of human SENP8 cleavage activity – biochemical, luminescence, SAR follow-up (AID 504501); format: functional
T6 sequence (Q96LD8 whole entry): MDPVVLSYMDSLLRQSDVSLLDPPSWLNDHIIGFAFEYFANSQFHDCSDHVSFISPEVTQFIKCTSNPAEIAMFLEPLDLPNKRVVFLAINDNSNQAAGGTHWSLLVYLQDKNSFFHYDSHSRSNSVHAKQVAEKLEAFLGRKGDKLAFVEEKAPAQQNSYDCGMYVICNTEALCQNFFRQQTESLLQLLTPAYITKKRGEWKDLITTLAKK

[15] = Counterscreen for inhibitors of Trypanosoma brucei methionyl tRNA synthetase (MetRS): Luminescence-based cell-based high throughput dose response assay to identify compounds that are cytotoxic to Jurkat human T lymphocyte cells.; format: functional
[16] = target: T7, Methionyl-tRNA synthetase, putative (Trypanosoma brucei brucei, UniProt Q38C91); format: functional, Trypanosoma brucei brucei strain 927/4 GUTat10.1;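 note: Read-out by fluorescence polarization, run as a confirmatory high-throughput counterscreen; potency of MetRS inhibitors measured by reduced AMP formation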
T7 sequence (Q38C91 whole entry): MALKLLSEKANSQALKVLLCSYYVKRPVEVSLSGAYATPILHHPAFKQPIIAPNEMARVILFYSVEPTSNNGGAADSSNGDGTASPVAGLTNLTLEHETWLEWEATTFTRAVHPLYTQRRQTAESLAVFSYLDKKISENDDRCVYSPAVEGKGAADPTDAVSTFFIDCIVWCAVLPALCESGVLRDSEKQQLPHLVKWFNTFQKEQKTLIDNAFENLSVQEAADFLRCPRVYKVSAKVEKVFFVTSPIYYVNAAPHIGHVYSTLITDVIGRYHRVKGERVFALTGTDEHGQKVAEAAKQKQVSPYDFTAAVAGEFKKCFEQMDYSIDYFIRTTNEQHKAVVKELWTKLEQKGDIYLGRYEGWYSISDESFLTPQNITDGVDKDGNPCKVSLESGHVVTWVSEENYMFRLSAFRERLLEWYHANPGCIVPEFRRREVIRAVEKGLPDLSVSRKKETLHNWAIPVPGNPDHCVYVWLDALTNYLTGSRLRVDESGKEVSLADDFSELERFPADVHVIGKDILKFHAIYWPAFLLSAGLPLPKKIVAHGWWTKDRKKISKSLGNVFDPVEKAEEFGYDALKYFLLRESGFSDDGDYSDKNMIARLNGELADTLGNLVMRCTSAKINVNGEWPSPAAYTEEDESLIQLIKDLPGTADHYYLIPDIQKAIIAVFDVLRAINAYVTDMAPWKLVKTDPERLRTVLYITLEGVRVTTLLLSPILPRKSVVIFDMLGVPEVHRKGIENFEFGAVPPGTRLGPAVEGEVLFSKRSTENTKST

For `Cc1ccc([C@H]2C(C(=O)O)=CC[C@@H](c3ccc(Cl)cc3)N2S(=O)(=O)c2ccc(C)cc2)cc1`, the IC50 [1] was > 20 µM (inactive), the IC50 [2] was 19.8 µM (active) and the EC50 [3] was 25.4 µM (active).

For `COC(=O)c1ccc(N2CCCCC2)c(NC(=O)c2ccco2)c1`, the IC50 [4] was 18.7 µM (inactive), the IC50 (Steroidogenic factor 1) was 3.89 µM (active) and the IC50 [5] was 6.04 µM (active).

In the case of `O=C(Nc1nnc(-c2ccco2)o1)c1ccc(S(=O)(=O)N2CCOCC2)cc1`, the AC50 [6] is reported as 117 µM (active) and the CC50 [7] is reported as > 40 µM (active).

For `O=C(NC1CCCC(C(F)(F)F)C1)c1ccc([N+](=O)[O-])o1` (stereo not drawn), the IC50 [4] was 35.9 µM (inactive), the IC50 (Steroidogenic factor 1) was 0.772 µM (active) and the IC50 [5] was 23.5 µM (inactive). The AC50 [8] was 11.2 µM (active) and the CC50 [9] was 8.8 µM (active).

In the case of `c1nc(NCc2ccc3c(c2)OCO3)c2cc(-c3ccoc3)ccc2n1`, the IC50 (Interleukin-8 [10]) is reported as 1.66 µM (active), the IC50 (Interleukin-8 [11]) is reported as > 79 µM (inactive) and the AC50 (HEK293) is reported as 2.17 µM (active).

With `Fc1ccc2[nH]c3c(NCCN4CCOCC4)ncnc3c2c1` the AC50 [12] was 14.9 µM (active).

With `O=C(CSc1ccc2nnc(-c3ccccn3)n2n1)Nc1nccs1` the AC50 [6] was 76.4 µM (active) and the IC50 (Nonstructural protein 1) was 43.5 µM (active).

With `CC1=NN(C(=O)c2ccc(Br)cc2)C(O)(C(F)(F)OC(F)(F)F)C1` (stereo not drawn) the IC50 [1] was > 20 µM (inactive), the IC50 [2] was 4.84 µM (active) and the EC50 [3] was 46 µM (active).

With `COc1ccc(C(=O)Nc2ccc3ccccc3c2)cc1OC` the IC50 [13] was > 99 µM (inactive), the IC50 (Caspase-3) was 14.9 µM (active) and the IC50 [14] was > 99 µM (inactive).

In the case of `O=C(Nc1ccc2snnc2c1)N1CCOCC1`, the AC50 [12] is reported as 8.02 µM (active).

In the case of `Cc1cc(Br)cc(Br)c1OCC(=O)NNC(=O)Nc1ccccc1`, the IC50 [15] is reported as 83.3 µM (inactive) and the IC50 [16] is reported as 119 µM (inactive).
